{"source": "patent US20150335647A1", "about": "“Methods of Increasing Liver Proliferation” (priority 2009, published 2015)", "key": {"hepatocyte proliferation": {"system": "hepatocyte proliferation", "assay": "BrdU hepatocyte proliferation after 2/3 hepatectomy in mice treated with dorsomorphin", "format": "in vivo", "details": "8 week old mice, dorsomorphin 10 mg/kg vs saline, injected 24 and 12 h prior to, at, and 12, 24, 36 h after 2/3 hepatectomy; measured at 36 and 48 hours", "description": "Animals were used to examine the role of various members of BMP signaling in restoration of liver mass after injury. Mice were subjected to two-thirds (“⅔”) or massive eighty percent (80%) hepatectomy. Surgery was performed on adult mice at least 8 weeks of age. For surgery, mice were anesthetized with 100 mg/kg ketamine and 10 mg/kg xylazine which were injected intraperitoneally. […] This was repeated until the subject was unconscious. Hair was removed from the surgical site using a clipper and the skin was disinfected using aseptic technique and betadyne. The scrubbed area was rinsed with 70% alcohol. To avoid hypothermia, the animal was not wetted more than necessary. An incision was made with a sterile scissors at the level of the xiphiod approximately one centimeter toward the umbilicus. The peritoneum was entered with a scissors and the tip of the xiphoid was excised. For ⅔ hepatectomy, the liver was exteriorized through the incision via gentle pressure on the flanks over an area previously prepped. A 4-0 silk ligature was placed around the exteriorized portion of the liver and tied. The anterior portion of the liver distal to the tie was then excised. A 4-0 proline was used to close the fascia and a 4-0 nylon was used to close the skin in a subcuticular fashion. […]"}, "[1]": {"system": "BMP-mediated SMAD 1, 5 and 8 phosphorylation", "details": "cited from earlier work"}, "[2]": {"assay": "Systemic toxicity of dorsomorphin administration for up to 60 days", "procedure": "To provide clinical relevance for the findings discussed above, eight week old mice were injected with an antagonist of BMP signaling. Dorsomorphin was injected for 48 hours prior to, during, and after ⅔ hepatectomy. Specifically, dorsomorphin was injected multiple times at 24 and 12 hours prior to hepatectomy, at the time of hepatectomy, and 12, 24, and 36 hours after hepatectomy."}, "[3]": {"system": "osteogenic differentiation induced by BMP4 or BMP6", "details": "induced by BMP4 or BMP6 in vitro; compared with noggin; cited from earlier work"}, "BMP signaling": {"system": "BMP signaling", "details": "in vivo; cited from earlier work"}, "MAPK p38 activation": {"system": "MAPK p38 activation", "details": "cited from earlier work"}, "[4]": {"system": "type I BMP receptors, namely, ALK2, ALK3, and ALK6", "details": "cited from earlier work"}}, "data": [{"smiles": "c1cc(-c2cnn3cc(-c4ccc(OCCN5CCCCC5)cc4)cnc23)ccn1", "note": "[Dorsomorphin]", "values": [{"measurement": "hepatocyte proliferation (BrdU incorporation)", "setting": "hepatocyte proliferation", "result": "marked enhancement of hepatocyte proliferation"}, {"measurement": "BMP-mediated SMAD 1, 5 and 8 phosphorylation", "setting": "[1]", "result": "block"}, {"measurement": "effect on bone marrow", "setting": "[2]", "result": "no effect"}, {"measurement": "effect on growth", "setting": "[2]", "result": "no effect"}, {"measurement": "effect on white blood cell count", "setting": "[2]", "result": "no effect"}, {"measurement": "systemic toxicity", "setting": "[2]", "result": "did not produced systemic toxicity"}, {"measurement": "inhibition of osteogenic differentiation", "setting": "[3]", "result": "more potent than that seen with treatment with noggin"}, {"measurement": "dorsalization in zebrafish embryos", "setting": "BMP signaling", "result": "effectively promote dorsalization"}, {"measurement": "MAPK p38 activation", "setting": "MAPK p38 activation", "result": "without affecting"}, {"measurement": "inhibition of type I BMP receptors ALK2, ALK3, and ALK6", "setting": "[4]", "result": "selectively inhibiting"}]}]}
